{"source": "patent US20050069541A1", "about": "“Composition for and treatment of demyelinating diseases and paralysis by administration of remyelinating agents” (priority 2003, published 2005)", "key": {"α4 integrin": {"target": "α4 integrin (Homo sapiens, UniProt P05556+P13612)", "sequence (P13612 34-1032)": "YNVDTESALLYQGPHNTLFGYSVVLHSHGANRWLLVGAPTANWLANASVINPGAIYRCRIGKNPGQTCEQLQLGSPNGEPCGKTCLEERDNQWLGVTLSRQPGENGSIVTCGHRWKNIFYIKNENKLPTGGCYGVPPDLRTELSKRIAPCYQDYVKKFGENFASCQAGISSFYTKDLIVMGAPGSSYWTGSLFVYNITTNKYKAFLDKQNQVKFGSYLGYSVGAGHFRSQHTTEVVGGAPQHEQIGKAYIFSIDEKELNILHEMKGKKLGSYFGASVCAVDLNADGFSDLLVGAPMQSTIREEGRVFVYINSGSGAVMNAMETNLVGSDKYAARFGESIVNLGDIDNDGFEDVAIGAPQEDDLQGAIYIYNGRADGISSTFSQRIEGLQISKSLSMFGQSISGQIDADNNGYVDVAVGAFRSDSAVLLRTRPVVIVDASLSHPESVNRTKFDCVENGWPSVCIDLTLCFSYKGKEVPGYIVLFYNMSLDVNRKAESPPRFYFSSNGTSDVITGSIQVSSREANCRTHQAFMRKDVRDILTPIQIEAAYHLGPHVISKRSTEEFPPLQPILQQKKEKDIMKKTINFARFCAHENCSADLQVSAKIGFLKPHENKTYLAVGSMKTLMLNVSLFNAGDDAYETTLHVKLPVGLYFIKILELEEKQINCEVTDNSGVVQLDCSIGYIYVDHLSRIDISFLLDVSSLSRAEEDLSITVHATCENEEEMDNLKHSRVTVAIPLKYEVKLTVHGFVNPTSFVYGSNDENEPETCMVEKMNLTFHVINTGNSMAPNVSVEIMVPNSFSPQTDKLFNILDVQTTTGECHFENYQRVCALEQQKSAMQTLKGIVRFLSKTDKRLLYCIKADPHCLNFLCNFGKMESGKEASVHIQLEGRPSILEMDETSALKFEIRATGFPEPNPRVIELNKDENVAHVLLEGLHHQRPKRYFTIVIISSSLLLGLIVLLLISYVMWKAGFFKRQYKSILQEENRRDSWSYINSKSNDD", "sequence (P05556 21-798)": "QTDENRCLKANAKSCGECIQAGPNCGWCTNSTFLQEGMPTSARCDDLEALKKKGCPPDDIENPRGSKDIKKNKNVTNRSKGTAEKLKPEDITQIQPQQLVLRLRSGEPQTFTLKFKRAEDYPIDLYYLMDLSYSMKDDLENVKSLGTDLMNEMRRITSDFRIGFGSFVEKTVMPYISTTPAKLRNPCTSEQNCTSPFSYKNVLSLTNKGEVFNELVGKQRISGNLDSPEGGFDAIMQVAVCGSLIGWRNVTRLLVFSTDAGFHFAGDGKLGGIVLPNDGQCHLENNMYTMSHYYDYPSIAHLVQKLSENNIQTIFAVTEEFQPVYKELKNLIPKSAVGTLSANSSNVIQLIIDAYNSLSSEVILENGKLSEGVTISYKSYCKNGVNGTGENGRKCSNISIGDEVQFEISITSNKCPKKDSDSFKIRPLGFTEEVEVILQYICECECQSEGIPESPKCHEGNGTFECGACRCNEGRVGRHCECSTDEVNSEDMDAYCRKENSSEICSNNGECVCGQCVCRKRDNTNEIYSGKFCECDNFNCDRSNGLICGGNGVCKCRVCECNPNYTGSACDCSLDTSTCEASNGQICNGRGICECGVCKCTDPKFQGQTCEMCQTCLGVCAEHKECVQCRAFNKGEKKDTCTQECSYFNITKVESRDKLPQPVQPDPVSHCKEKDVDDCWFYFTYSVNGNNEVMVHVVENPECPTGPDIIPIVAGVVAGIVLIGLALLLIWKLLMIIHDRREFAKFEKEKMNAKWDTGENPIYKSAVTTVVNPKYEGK", "assay": "Inhibition of cell adhesion to VCAM", "assay_type": "cell-based, human and guinea pig", "settings": "human and guinea pig integrin; read-out: IC50 for inhibition of cell adhesion to VCAM"}, "[1]": {"assay": "Receptor-saturating levels of compound maintained in dosed EAE guinea pigs", "assay_type": "in vivo", "settings": "30 mg/kg twice a day, subcutaneously, guinea pig", "protocol": "Treatment Regimes. N-[N-(3-pyridinesulfonyl)-L-3,3-dimethyl-4-thiaprolyl]-O-[1-methylpiperazin-4-ylcarbonyl]-L-tyrosine isopropyl ester is a small molecule that binds with high affinity to human and guinea pig 4 integrin (IC50 for inhibition of cell adhesion to VCAM=1 nm). Disease in animals was considered chronic by day 40 post immunization, and thus the treatment period began at this time, and lasted for 10, 20, 30 or 40 days. Animals received either 0.5 mL saline (vehicle for N-[N-(3-pyridinesulfonyl)-L-3,3-dimethyl-4-thiaprolyl]-O-[1-methylpiperazin-4-ylcarbonyl]-L-tyrosine isopropyl ester; n=20) or 30 mg/kg N-[N-(3-pyridinesulfonyl)-L-3,3-dimethyl-4-thiaprolyl]-O-[1-methylpiperazin-4-ylcarbonyl]-L-tyrosine isopropyl ester (n=25) twice a day. With the dosing regimen, receptor saturation levels of N-[N-(3-pyridinesulfonyl)-L-3,3-dimethyl-4-thiaprolyl]-O-[1-methylpiperazin-4-ylcarbonyl]-L-tyrosine isopropyl ester (>10 nm) were maintained at all times. One subgroup of animals received N-[N-(3-pyridinesulfonyl)-L-3,3-dimethyl-4-thiaprolyl]-O-[1-methylpiperazin-4-ylcarbonyl]-L-tyrosine isopropyl ester for 30 days, and then treatment was withdrawn and the animals were maintained for an additional 10 days (n=5). All treatments were administered subcutaneously.\nTreatment Regimes. Animals that met both treatment criteria were treated for intervals of 10, 20, 30 or 40 days. […]"}, "[2]": {"system": "brain and spinal cord of EAE guinea pigs", "assay": "Chronic EAE: histology and blinded pathological scoring of brain and spinal cord sections (H-E, SCR)", "assay_type": "in vivo, guinea pig", "protocol": "Animal Sacrifice and Histological Analysis. Untreated, chronic EAE animals (n=5) were sacrificed on day 40, as well as non-EAE controls (n=5). Following each 10-day treatment interval, 5 animals from each group were sacrificed (0.25 mL sodium pentobarbital), blood samples were collected for FACS analysis (see below), and the brain and spinal cord dissected and sectioned. Three spinal sections were used, corresponding to lumbar, thoracic and cervical regions of the cord. The brain was cut into five transverse sections. The first three proximal sections were combined in one block, and the last two distal sections in another. Tissues were fixed in 10% formalin and embedded in paraffin. […] sections were stained with hematoxylin-eosin (H-E) or solochrome-R-cyanlin (SCR) and evaluated by a blinded observer in each of four categories: (1) meningeal inflammation, (2) perivascular infiltration, (3) encephalitis or (4) myelitis and demyelination (Table 6). The combined pathological score represents the total score (out of a potential 20) from all 5 CNS sections in each animal."}, "[3]": {"system": "infiltrating cells in spinal cord", "assay": "Chronic EAE: mean cell counts in spinal cord (H-E sections, 0.12 mm^2 fields)", "assay_type": "in vivo, guinea pig", "settings": "for Mean # Cells/0.12 mm^2: spinal cord", "protocol": "To quantify the abnormalities observed in the spinal cord, sections stained with H-E were divided into 12 representative pie-shaped areas. In each area, the number of cells within a 0.12 mm^2 field of view was counted using Sigma Scan Pro image analysis software (SPSS Inc.), and the combined mean number of cells in all 12 areas was calculated for the whole spinal cord (36 fields of view per animal). Note that as all cell nuclei were counted, the number of cells may include neurons and glial cells in addition to infiltrates."}, "[4]": {"system": "α4 integrin on circulating lymphocytes and monocytes", "assay": "Chronic EAE: FACS analysis of α4 integrin on circulating cells, day 80", "assay_type": "in vivo, guinea pig", "protocol": "FACS Analysis. On day 80 post-immunization, heparinized blood samples were collected from non-EAE animals, saline-treated animals, N-[N-(3-pyridinesulfonyl)-L-3,3-dimethyl-4-thiaprolyl]-O-[1-methylpiperazin-4-ylcarbonyl]-L-tyrosine isopropyl ester-treated animals and animals 10 days following withdrawal of N-[N-(3-pyridinesulfonyl)-L-3,3-dimethyl-4-thiaprolyl]-O-[1-methylpiperazin-4-ylcarbonyl]-L-tyrosine isopropyl ester. All samples were maintained at 4° C. for all procedures. 150 μl samples were exposed to primary antibody for 30 minutes, washed twice, and then incubated with PE-conjugated goat anti-mouse IgG Fc in the presence of 5% guinea pig serum (Beckman Coulter #PN EM055 1). Red blood cells were lysed with Becton-Dickinson lysing solution and the samples were examined on a FACScan flow cytometer (Becton Dickinson, Mountain View, Calif.) gating on different cell populations by light scatter."}, "[5]": {"system": "spinal cord lesions of paralyzed EAE guinea pigs", "assay": "Example 2: spontaneous remyelination in chronic EAE (SCR, toluidine blue, EM, lesion area analysis, motor function)", "assay_type": "in vivo, guinea pig"}, "[6]": {"system": "EAE in female Hartley guinea pigs"}, "[7]": {"system": "guinea pig model of CP-EAE", "settings": "with increasing duration of treatment; Piraino et al., 2002; cited from earlier work"}}}
{"smiles": "CC(C)OC(=O)[C@H](Cc1ccc(OC(=O)N2CCN(C)CC2)cc1)NC(=O)[C@H]1N(S(=O)(=O)c2cccnc2)CSC1(C)C", "note": "[N-[N-(3-pyridinesulfonyl)-L-3,3-dimethyl-4-thiaprolyl]-O-[1-methylpiperazin-4-ylcarbonyl]-L-tyrosine isopropyl ester]", "values": [{"measurement": "IC50", "setting": "α4 integrin", "value": 1, "unit": "nM"}, {"measurement": "receptor saturation levels maintained at all times", "setting": "[1]", "value": "> 10", "unit": "nm"}, {"measurement": "mean pathological score in each of four categories versus saline", "setting": "[2]; meningeal inflammation, perivascular infiltration, encephalitis/myelitis, demyelination, p<0.001 two-way ANOVA", "value": "significant decrease"}, {"measurement": "mean combined pathological score after withdrawal for 10 days versus continued treatment", "setting": "[2]; p<0.05 Kruskal Wallis", "value": "significantly higher"}, {"measurement": "spinal cord histology after 20 days of treatment (day 60)", "setting": "[2]; versus saline", "value": "much smaller areas of demyelination"}, {"measurement": "spinal cord histology after 40 days of treatment (day 80)", "setting": "[2]; versus saline", "value": "almost no meningeal and perivascular infiltration"}, {"measurement": "cell number in spinal cord versus saline-treated animals", "setting": "[3]; after 10, 20, 30 or 40 days, p<0.001 two-way ANOVA", "value": "significant reduction"}, {"measurement": "mean cell counts versus chronic (d40) control EAE animals", "setting": "[3]; after 20, 30 or 40 days, p<0.05", "value": "significantly lower"}, {"measurement": "mean cell count in spinal cord versus non-EAE animals", "setting": "[3]; after 40 days of treatment", "value": "not different"}, {"measurement": "mean cell count after removal of compound for 10 days versus continuous treatment", "setting": "[3]; p<0.05", "value": "significant increase"}, {"measurement": "rate of cell loss from spinal cord", "setting": "[3]; slope of linear regression of mean cell counts, r^2=0.90", "value": 8, "unit": "cells/mm^2/day"}, {"measurement": "Mean # Cells/0.12 mm^2", "setting": "[3]; D50 (10 days of treatment)", "value": "97 ± 3.9", "unit": "cells/0.12 mm^2"}, {"measurement": "Mean # Cells/0.12 mm^2", "setting": "[3]; D60 (20 days of treatment)", "value": "86 ± 4.2", "unit": "cells/0.12 mm^2"}, {"measurement": "Mean # Cells/0.12 mm^2", "setting": "[3]; D70 (30 days of treatment)", "value": "89 ± 8", "unit": "cells/0.12 mm^2"}, {"measurement": "Mean # Cells/0.12 mm^2", "setting": "[3]; D80 (40 days of treatment)", "value": "70 ± 4", "unit": "cells/0.12 mm^2"}, {"measurement": "percentage of α4 integrin bright lymphocytes in the circulation after removal of compound", "setting": "[4]; 10 days after withdrawal", "value": "returned to saline-treated levels"}, {"measurement": "increase of α4 integrin expression on circulating monocytes in EAE", "setting": "[4]; day 80", "value": "not affected"}, {"measurement": "α4 integrin bright lymphocytes in the circulation versus saline", "setting": "[4]; day 80 post immunization", "value": "large increase"}, {"measurement": "myelin repair, share of the total lesion area", "setting": "[5]; 30 mg/kg twice daily s.c.", "value": 50, "unit": "%"}, {"measurement": "SCR-stained spinal cord after 10 days of treatment", "setting": "[5]; 10 days", "value": "minimal evidence of myelin pallor"}, {"measurement": "SCR-stained spinal cord lesions after 20 days of treatment", "setting": "[5]; 20 days", "value": "many lesions exhibited diffuse pale blue staining"}, {"measurement": "SCR-stained spinal cord lesions after 40 days of treatment", "setting": "[5]; 40 days", "value": "presented as shadow plaques"}, {"measurement": "plaques showing evidence of remyelination", "setting": "[5]; after 40 days of treatment, 30 mg/kg twice daily s.c.", "value": 87, "unit": "%"}, {"measurement": "semithin and EM sections of lesions", "setting": "[5]; day 30 of treatment", "value": "multiple thin myelin layers around large caliber axons"}, {"measurement": "animals that regained motor function", "setting": "[5]; paralyzed guinea pigs, clinical score 2 at start", "value": 50, "unit": "%"}, {"measurement": "start of clinical reversal following the initial treatment", "setting": "[6]; 30 mg/kg 2x/day s.c.", "value": "2 to 3", "unit": "days"}, {"measurement": "mean clinical score over the treatment period versus saline", "setting": "[6]; 30 mg/kg 2x/day s.c. from day 40 for 10-40 days, p<0.001 Mann Whitney", "value": "significantly lower"}, {"measurement": "mean clinical score day 70-80 after withdrawal (30 days treatment, 10 days off) versus continuous treatment", "setting": "[6]; n=5, p<0.05 Mann Whitney", "value": "significantly greater"}, {"measurement": "clinical score reached during treatment in animals with an established clinical score of 2", "setting": "[6]; several animals, paresis reversed", "value": 1}, {"measurement": "escape from treatment", "setting": "[6]; up to 40 days of treatment", "value": "None of the animals, however, escaped from treatment"}, {"measurement": "immune cell infiltrates and associated inflammatory mediators", "setting": "[7]", "value": "progressively reduce immune cell infiltrates"}]}
